Results from publication PMC8123931 (Nature chemical biology, 2020).
Where two headings read alike, the source gives them in different places.

What was measured:
EGFR ex19del/T790M/C797S = EGFR ex19del/T790M/C797S (Homo sapiens, UniProt P00533, C797S/DEL746-750/T790M); experiment: In vitro kinase assay, recombinant kinase domain; format: biochemical
EGFR L858R/T790M/C797S [1] = molecular target: T1, EGFR L858R/T790M/C797S (Homo sapiens, UniProt P00533, C797S/L858R/T790M); experiment: In vitro kinase assay, recombinant kinase domain; format: biochemical
[2] = molecular target: purified pig brain tubulin (Sus scrofa, UniProt P02550+P02554); experiment: In vitro microtubule dynamics assay with mCherry-EB3; format: biochemical
Chain of purified pig brain tubulin (P02550 whole entry): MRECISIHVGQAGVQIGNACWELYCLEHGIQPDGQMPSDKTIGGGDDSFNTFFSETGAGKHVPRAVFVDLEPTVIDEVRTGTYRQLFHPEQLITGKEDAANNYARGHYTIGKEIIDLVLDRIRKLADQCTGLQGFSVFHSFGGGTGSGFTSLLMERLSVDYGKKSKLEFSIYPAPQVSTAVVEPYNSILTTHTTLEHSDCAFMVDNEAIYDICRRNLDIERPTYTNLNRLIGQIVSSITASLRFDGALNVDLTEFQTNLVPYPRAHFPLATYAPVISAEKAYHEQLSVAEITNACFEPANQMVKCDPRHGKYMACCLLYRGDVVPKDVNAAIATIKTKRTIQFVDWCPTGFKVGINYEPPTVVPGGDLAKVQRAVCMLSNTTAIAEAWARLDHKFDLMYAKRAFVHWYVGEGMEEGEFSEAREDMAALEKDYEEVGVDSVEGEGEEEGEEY
Chain of purified pig brain tubulin (P02554 whole entry): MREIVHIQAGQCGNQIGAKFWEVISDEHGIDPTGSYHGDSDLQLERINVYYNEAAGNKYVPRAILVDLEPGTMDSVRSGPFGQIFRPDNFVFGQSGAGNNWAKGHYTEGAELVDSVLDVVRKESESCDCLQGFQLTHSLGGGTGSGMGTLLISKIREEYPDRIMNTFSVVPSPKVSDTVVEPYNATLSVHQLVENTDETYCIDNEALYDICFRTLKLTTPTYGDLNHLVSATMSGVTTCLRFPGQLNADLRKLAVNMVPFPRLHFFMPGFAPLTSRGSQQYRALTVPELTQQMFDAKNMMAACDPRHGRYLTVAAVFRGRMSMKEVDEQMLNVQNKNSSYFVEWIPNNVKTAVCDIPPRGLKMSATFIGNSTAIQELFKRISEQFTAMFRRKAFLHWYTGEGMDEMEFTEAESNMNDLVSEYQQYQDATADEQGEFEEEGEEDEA

EGFR L858R/T790M/C797S [3] = molecular target: T1, EGFR L858R/T790M/C797S; experiment: MaMTH-DS assay and screen, EGFR L858R/T790M/C797S bait with Shc1 prey; format: cell-based
EGFR L858R/T790M/C797S [4] = molecular target: T1, EGFR L858R/T790M/C797S; experiment: MaMTH-DS assay, EGFR L858R/T790M/C797S bait with CrkII and Hsp90; format: cell-based

- inhibition of kinase activity of EGFR triple-mutant protein (EGFR ex19del/T790M/C797S): no inhibition of the kinase activity
- inhibition of kinase activity of EGFR triple-mutant protein (EGFR L858R/T790M/C797S [1]): no inhibition of the kinase activity
- interaction of Shc1 with EGFR L858R/T790M/C797S (in words) (EGFR L858R/T790M/C797S [3]; listed as ChemBridge compound 5213777): robust, dose-dependent inhibition
SMILES: CCN(CC)c1ccc2cc(-c3nc4ccccc4o3)c(=O)oc2c1 [EMI1, 3-(1,3-benzoxazol-2-yl)-7-(diethylamino)-2H-chromen-2-one]
- microtubule dynamics (growth rate, time, catastrophe frequency) [2]: reduced microtubule growth rate and time, while increasing catastrophe frequency
- interaction of Shc1 with EGFR L858R/T790M/C797S (in words) (EGFR L858R/T790M/C797S [3]): potently reducing the interaction of EGFR triple mutant with Shc1
- interaction of CrkII with EGFR L858R/T790M/C797S (EGFR L858R/T790M/C797S [4]): inhibited interaction of both proteins with EGFR at a level similar to that observed with Shc1
- interaction of Hsp90 with EGFR L858R/T790M/C797S (EGFR L858R/T790M/C797S [4]): inhibited interaction of both proteins with EGFR at a level similar to that observed with Shc1
